Some test systems named below: MCF7; OVCAR-8; HL-60; SK-MEL-5; OVCAR-5; ACHN; UO-31; M14; SF-539; RXF 393; SW-620; CCRF-CEM; 786-0; A549; NCI-H460; HCT-15; Hs-578T; UACC-257; OVCAR-4; SNB-75.
Assay in all cases: NCI anticancer screen, dose series, 48 h

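A five-concentration, 48-hour dose response in 96-well plates underlies each endpoint, interpolated linearly between surrounding concentrations. At the GI50, growth is halved.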 Calls of active or inactive are those of the source. Rule as the data show it: active = GI50 up to about 1.1 µM and inactive = higher.

In the case of `COC1=CC(=O)O/C1=C(\OC)C1OC1c1ccccc1` (stereo not drawn), the GI50 with MCF7 is > 100 µM (inactive); with OVCAR-8, > 100 µM (inactive); in the assay with HL-60, 85.7 µM (inactive); in the assay with SK-MEL-5, > 100 µM (inactive); in the assay on OVCAR-5, > 100 µM (inactive); with ACHN, > 100 µM (inactive). The GI50 with UO-31 is > 100 µM (inactive); with M14, > 100 µM (inactive); in the assay on SF-539, > 100 µM (inactive); with RXF 393 it was > 100 µM (inactive); with SW-620, > 100 µM (inactive); in the assay on CCRF-CEM it was 35.2 µM (inactive). The GI50 with 786-0 was > 100 µM (inactive); in the assay on A549, > 100 µM (inactive); in the assay with NCI-H460 it was > 100 µM (inactive); in the assay with HCT-15 it was greater than 100 µM; in the assay with Hs-578T, > 100 µM (inactive); in the assay on UACC-257 it was > 100 µM (inactive). In the assay with OVCAR-4, the GI50 is > 100 µM (inactive).
Turning to `COc1cc(C2SC(=N)Nc3c2c(C)nn3C(=O)c2ccccc2O)ccc1O` (stereo not drawn), the GI50 in the assay with MCF7 was > 2.01 µM (inactive); in the assay on SNB-75, 1.04 µM (active); in the assay on OVCAR-8, > 2.33 µM (inactive); in the assay on HL-60, > 2.32 µM (inactive); in the assay with SK-MEL-5 it was 2.75 µM (inactive); in the assay with OVCAR-5, > 5.53 µM (inactive). The GI50 with ACHN is 1.21 µM (inactive); in the assay on UO-31, 9.31 µM (inactive); in the assay with M14, > 2.85 µM (inactive); with RXF 393, 1.52 µM (inactive); in the assay on SW-620, > 4.71 µM (inactive); in the assay on CCRF-CEM, 2.01 µM (inactive). Further, the GI50 was > 2.33 µM (inactive) with 786-0; 1.36 µM (inactive) in the assay with A549; 0.317 µM (active) in the assay on NCI-H460; greater than 2.31 µM in the assay with HCT-15; 0.461 µM (active) with Hs-578T; 0.94 µM (active) with UACC-257. Further, the GI50 with OVCAR-4 is > 2.1 µM (inactive).
Consider `COc1ccc2c(c1)C(N)=C(c1ccccc1OC)C2=O`, for which the GI50 is > 100 µM (inactive) in the assay with MCF7; 64.3 µM (inactive) in the assay on SNB-75; > 100 µM (inactive) in the assay with OVCAR-8; 23.5 µM (inactive) in the assay with HL-60; > 100 µM (inactive) in the assay with OVCAR-5; > 100 µM (inactive) in the assay with ACHN. Besides, the GI50 in the assay on UO-31 is 89.7 µM (inactive); in the assay with M14, > 100 µM (inactive); in the assay on SF-539, > 100 µM (inactive); in the assay on RXF 393, 25.1 µM (inactive); with SW-620, > 100 µM (inactive); with CCRF-CEM, > 100 µM (inactive). Besides, the GI50 in the assay with 786-0 is > 100 µM (inactive); in the assay on NCI-H460, > 100 µM (inactive); in the assay on HCT-15, greater than 100 µM; in the assay with Hs-578T, > 100 µM (inactive); in the assay on UACC-257, > 100 µM (inactive); in the assay with OVCAR-4 it was 99.5 µM (inactive).
`O=C1/C(=C/c2ccc(Cl)cc2)N=C(c2ccccc2)N1c1nc2ccc(Sc3ccccc3)cc2[nH]1`: the GI50 in the assay with MCF7 was 22.6 µM (inactive); in the assay with SNB-75 it was 15.8 µM (inactive); in the assay with OVCAR-8, 30.1 µM (inactive); in the assay on HL-60, 15.8 µM (inactive); with SK-MEL-5 it was 15.5 µM (inactive); with OVCAR-5, 25.6 µM (inactive). The GI50 with ACHN was 36.4 µM (inactive); with UO-31, 34.8 µM (inactive); in the assay on M14, 16.3 µM (inactive); with RXF 393, 26.3 µM (inactive); in the assay with SW-620, 23.7 µM (inactive); in the assay with CCRF-CEM, 22.4 µM (inactive). The GI50 with 786-0 is 25.9 µM (inactive); in the assay with A549, 36.1 µM (inactive); in the assay on NCI-H460, 22.7 µM (inactive); in the assay on HCT-15, 29.2 µM; with Hs-578T, 29.2 µM (inactive); in the assay with UACC-257, 22.3 µM (inactive). The GI50 in the assay with OVCAR-4 was 34.7 µM (inactive).
For `C[C@H]1[C@H]2[C@H]3CC[C@@H]4[C@@]5(C)CC[C@H](O)C(C)(C)[C@@H]5CC[C@@]4(C)[C@]3(C)C[C@H](O)[C@@]2(C)C[C@H]2O[C@]21C`, the GI50 is 16.5 µM (inactive) with MCF7; 19.6 µM (inactive) in the assay with OVCAR-8; 44 µM (inactive) with HL-60; 16.6 µM (inactive) in the assay on SK-MEL-5; 24.6 µM (inactive) in the assay on OVCAR-5; 15.2 µM (inactive) with ACHN. Further, the GI50 in the assay on M14 is 25.5 µM (inactive); in the assay with SF-539, 18.8 µM (inactive); in the assay with RXF 393 it was 16.7 µM (inactive); in the assay with SW-620 it was 24 µM (inactive); in the assay with CCRF-CEM it was 32.4 µM (inactive); in the assay on 786-0, 19.5 µM (inactive). For the same molecule, the GI50 is 16.7 µM (inactive) in the assay on A549; 18.9 µM (inactive) in the assay on NCI-H460; 20.1 µM in the assay on HCT-15; 25.2 µM (inactive) in the assay with Hs-578T; 16.8 µM (inactive) in the assay on UACC-257; 25.1 µM (inactive) in the assay with OVCAR-4.
As for `O=C(O)c1ccccc1NCn1c(=S)sc2ccccc21`, the GI50 was 22.4 µM (inactive) with MCF7; > 100 µM (inactive) in the assay on SNB-75; > 100 µM (inactive) with OVCAR-8; 19.6 µM (inactive) with HL-60; > 100 µM (inactive) with OVCAR-5; 35.6 µM (inactive) in the assay with ACHN. The GI50 was 51.2 µM (inactive) with UO-31; > 100 µM (inactive) in the assay on M14; 18.3 µM (inactive) in the assay with SF-539; > 100 µM (inactive) in the assay on RXF 393; 36 µM (inactive) with SW-620; 23.4 µM (inactive) with CCRF-CEM. For the same molecule, the GI50 with 786-0 is 54.3 µM (inactive); in the assay on A549, 68.7 µM (inactive); with NCI-H460, 21.9 µM (inactive); in the assay on HCT-15, 66.5 µM; in the assay on Hs-578T it was > 100 µM (inactive); in the assay on UACC-257, 31.8 µM (inactive). In addition, the GI50 in the assay on OVCAR-4 was 56 µM (inactive).
Turning to `CC1(C)CCC2=C(O1)/C(=N\Nc1ccccc1)c1ccccc1C2=O`, the GI50 in the assay on MCF7 was 18.9 µM (inactive); with OVCAR-8, 36.2 µM (inactive); in the assay with HL-60 it was 35.8 µM (inactive); with SK-MEL-5, 32.1 µM (inactive); in the assay on OVCAR-5 it was 31.3 µM (inactive); in the assay on ACHN it was 17.7 µM (inactive). Besides, the GI50 in the assay on UO-31 is 17.8 µM (inactive); in the assay on M14 it was 31.5 µM (inactive); in the assay on SF-539 it was 26.5 µM (inactive); in the assay on RXF 393, 16.6 µM (inactive); in the assay on SW-620, > 100 µM (inactive); in the assay with CCRF-CEM, 56.1 µM (inactive). Besides, the GI50 in the assay on 786-0 is 15.8 µM (inactive); in the assay with A549 it was 27.2 µM (inactive); in the assay with NCI-H460 it was 23.2 µM (inactive); with HCT-15, 29.6 µM; in the assay with Hs-578T, 35.6 µM (inactive); in the assay on UACC-257 it was 18.7 µM (inactive). Also, the GI50 in the assay with OVCAR-4 was 31.2 µM (inactive).
`O=c1c2ccccc2nc(Cc2nc(-c3ccc(Cl)cc3)cs2)n1-c1ccc(Cl)cc1`: the GI50 in the assay with MCF7 was 46.9 µM (inactive); in the assay on SNB-75 it was 79.6 µM (inactive); in the assay on OVCAR-8 it was 82.6 µM (inactive); in the assay on HL-60, 66.2 µM (inactive); in the assay with SK-MEL-5, 34.4 µM (inactive); with OVCAR-5, 27.1 µM (inactive). Further, the GI50 was 37 µM (inactive) in the assay on ACHN; > 100 µM (inactive) with UO-31; > 100 µM (inactive) in the assay on M14; > 100 µM (inactive) in the assay with RXF 393; 91.8 µM (inactive) with SW-620; 17.6 µM (inactive) with CCRF-CEM. For the same molecule, the GI50 was 81.3 µM (inactive) in the assay with 786-0; 50.6 µM (inactive) in the assay on A549; 46.2 µM (inactive) in the assay on NCI-H460; 31.5 µM in the assay with HCT-15; > 100 µM (inactive) with Hs-578T; 67.6 µM (inactive) in the assay with UACC-257. In the assay on OVCAR-4, the GI50 was 76.2 µM (inactive).
As to `C=CCN(C(=O)OC(C)(C)C)C1=CC2C(C)=CN(S(=O)(=O)c3ccccc3)C2C(OCc2ccccc2)=C1` (stereo not drawn), the GI50 in the assay with MCF7 is > 100 µM (inactive); in the assay on SNB-75, 6.18 µM (inactive); in the assay with OVCAR-8, > 100 µM (inactive); in the assay on HL-60, > 100 µM (inactive); in the assay with SK-MEL-5 it was > 100 µM (inactive); in the assay on OVCAR-5, > 100 µM (inactive). Moreover, the GI50 is > 100 µM (inactive) in the assay with ACHN; > 100 µM (inactive) in the assay with UO-31; > 100 µM (inactive) in the assay on M14; 36.1 µM (inactive) with RXF 393; > 100 µM (inactive) in the assay on SW-620; > 100 µM (inactive) with CCRF-CEM. The GI50 with 786-0 was > 100 µM (inactive); with A549, > 100 µM (inactive); in the assay with NCI-H460, > 100 µM (inactive); in the assay with HCT-15, greater than 100 µM; in the assay on Hs-578T, > 100 µM (inactive); with UACC-257 it was > 100 µM (inactive). Also, the GI50 in the assay with OVCAR-4 was > 100 µM (inactive).
Turning to `COc1ccc2c(c1O)[C@@]13CCCC=C1[C@@H](C2)[N+](C)(C)CC3`, the GI50 was > 100 µM (inactive) in the assay with MCF7; 77.6 µM (inactive) in the assay with SNB-75; > 100 µM (inactive) in the assay with OVCAR-8; 56.4 µM (inactive) with HL-60; 91.4 µM (inactive) with SK-MEL-5; > 100 µM (inactive) in the assay on OVCAR-5. Also, the GI50 with ACHN, in the assay with UO-31, in the assay on M14, in the assay on RXF 393, in the assay with SW-620 and in the assay with CCRF-CEM was > 100 µM (inactive) each time. Moreover, the GI50 in the assay with 786-0 is > 100 µM (inactive); with A549 it was > 100 µM (inactive); in the assay with NCI-H460, > 100 µM (inactive); in the assay on HCT-15, greater than 100 µM; with Hs-578T, 77.3 µM (inactive); with UACC-257 it was 79.1 µM (inactive). The GI50 in the assay on OVCAR-4 is > 100 µM (inactive).

The record behind these values is ChEMBL document CHEMBL1201862, “PubChem BioAssay data set” (2004).
